How the values were obtained:
Assay in all cases: Test E postemergence
corn = format: in vivo, Zea mays; conditions: Zea mays, post-emergence
Procedure, shortened: (§1)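 Compound in a non-phytotoxic solvent mixture with surfactant was applied preemergence to seeds in silt loam soil, or postemergence to plants 2 to 18 cm tall grown in peat-based potting medium. Plants were kept in a greenhouse for 14 to 21 days, then rated visually against untreated controls on a 0 (no effect) to 100 (complete control) scale.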

field bindweed = format: in vivo, Convolvulus arvensis; conditions: Convolvulus arvensis, post-emergence, read-out: Plant response rating, Field Bindweed
Procedure, shortened: as §1

sandbur = format: in vivo, Cenchrus echinatus; conditions: Cenchrus echinatus, post-emergence, read-out: Plant response rating, Sandbur
Procedure, shortened: as §1

waterhemp = format: in vivo, Amaranthus rudis; conditions: Amaranthus tuberculatus, post-emergence, read-out: Plant response rating, Waterhemp
Procedure, shortened: as §1

Brazilian crabgrass = format: in vivo, Digitaria horizontalis; conditions: Digitaria horizontalis, post-emergence, read-out: Plant response rating, Crabgrass, Brazil
Procedure, shortened: as §1

wild poinsettia = format: in vivo, Euphorbia heterophylla; conditions: Euphorbia heterophylla, post-emergence, read-out: Plant response rating, Poinsettia, Wild
Procedure, shortened: as §1

palmer pigweed = format: in vivo, Amaranthus palmeri; conditions: post-emergence, read-out: Plant response rating, Pigweed, Palmer
Procedure, shortened: as §1

hairy beggarticks = format: in vivo, Bidens pilosa; conditions: Bidens pilosa, post-emergence, read-out: Plant response rating, Beggarticks
Procedure, shortened: as §1

fall panicum = format: in vivo, Panicum dichotomiflorum; conditions: Panicum dichotomiflorum, post-emergence, read-out: Plant response rating, Panicum, Fall
Procedure, shortened: as §1

[1] = Postemergence, 31 g ai/ha, scale 0 to 100
[2] = Postemergence, 62 g ai/ha, scale 0 to 100
[3] = Postemergence, 125 g ai/ha, scale 0 to 100
[4] = postemergence, 8 g ai/ha, scale 0 to 100, 0 no effect, 100 complete control
[5] = postemergence, 16 g ai/ha, scale 0 to 100, 0 no effect, 100 complete control

N#Cc1cccc(Oc2ncc(Cl)cn2)c1-n1cc(OCC(F)(F)F)cn1 [Compound 274, 3-[(5-chloro-2-pyrimidinyl)oxy]-2-[4-(2,2,2-trifluoroethoxy)-1H-pyrazol-1-yl]benzonitrile]
corn plant response (injury) rating, 0-100 at 31 g/ha (corn; [1]): 10%
corn plant response (injury) rating, 0-100 at 62 g/ha (corn; [2]): 10%
corn plant response (injury) rating, 0-100 at 125 g/ha (corn; [3]): 15%
corn plant response (injury) rating, 0-100 at 8 g/ha (corn; [4]): 10%
corn plant response (injury) rating, 0-100 at 16 g/ha (corn; [5]): 15%
pest or weed control at 31 g/ha (field bindweed; [1]): 50%
pest or weed control at 62 g/ha (field bindweed; [2]): 70%
pest or weed control at 125 g/ha (field bindweed; [3]): 75%
pest or weed control at 8 g/ha (field bindweed; [4]): 60%
pest or weed control at 16 g/ha (field bindweed; [5]): 50%
pest or weed control at 31 g/ha (sandbur; [1]): 10%
pest or weed control at 62 g/ha (sandbur; [2]): 15%
pest or weed control at 125 g/ha (sandbur; [3]): 0%
pest or weed control at 8 g/ha (sandbur; [4]): 0%
pest or weed control at 16 g/ha (sandbur; [5]): 0%
pest or weed control at 31 g/ha (waterhemp; [1]): 90%
pest or weed control at 62 g/ha (waterhemp; [2]): 95%
pest or weed control at 125 g/ha (waterhemp; [3]): 98%
pest or weed control at 8 g/ha (waterhemp; [4]): 70%
pest or weed control at 16 g/ha (waterhemp; [5]): 95%
pest or weed control at 31 g/ha (Brazilian crabgrass; [1]): 25%
pest or weed control at 62 g/ha (Brazilian crabgrass; [2]): 35%
pest or weed control at 125 g/ha (Brazilian crabgrass; [3]): 50%
pest or weed control at 8 g/ha (Brazilian crabgrass; [4]): 10%
pest or weed control at 16 g/ha (Brazilian crabgrass; [5]): 20%
pest or weed control at 31 g/ha (wild poinsettia; [1]): 70%
pest or weed control at 62 g/ha (wild poinsettia; [2]): 70%
pest or weed control at 125 g/ha (wild poinsettia; [3]): 70%
pest or weed control at 8 g/ha (wild poinsettia; [4]): 50%
pest or weed control at 16 g/ha (wild poinsettia; [5]): 65%
pest or weed control at 31 g/ha (palmer pigweed; [1]): 85%
pest or weed control at 62 g/ha (palmer pigweed; [2]): 95%
pest or weed control at 125 g/ha (palmer pigweed; [3]): 100%
pest or weed control at 8 g/ha (palmer pigweed; [4]): 70%
pest or weed control at 16 g/ha (palmer pigweed; [5]): 65%
pest or weed control at 31 g/ha (hairy beggarticks; [1]): 60%
pest or weed control at 62 g/ha (hairy beggarticks; [2]): 70%
pest or weed control at 125 g/ha (hairy beggarticks; [3]): 95%
pest or weed control at 8 g/ha (hairy beggarticks; [4]): 30%
pest or weed control at 16 g/ha (hairy beggarticks; [5]): 50%
pest or weed control at 31 g/ha (fall panicum; [1]): 20%
pest or weed control at 62 g/ha (fall panicum; [2]): 50%
pest or weed control at 125 g/ha (fall panicum; [3]): 20%
pest or weed control at 8 g/ha (fall panicum; [4]): 10%
pest or weed control at 16 g/ha (fall panicum; [5]): 15%

Source: patent US9695155B2, “Herbicidal substituted pyrimidinyloxy benzene compounds” (E. I. DU PONT DE NEMOURS AND COMPANY, priority 2013, dated 2017)
